In one series the test system is Escherichia coli. Nature of the series: Test for mutagenic activity in Escherichia coli strains. Particulars: 3-1000 mg/plate (TTA) 2-5000 mg/plate (TSA). It is filed as cell-based. The text has this: (§1) Tests for mutagenic activity have been performed by Covance Laboratories Limited, England. […] Furthermore, TTA was not mutagenic when tested in mouse lymphoma cells […] L5178Y.

In the next series the target is T1, PPARγ (Homo sapiens, UniProt P37231).
T1 sequence (P37231 1-505): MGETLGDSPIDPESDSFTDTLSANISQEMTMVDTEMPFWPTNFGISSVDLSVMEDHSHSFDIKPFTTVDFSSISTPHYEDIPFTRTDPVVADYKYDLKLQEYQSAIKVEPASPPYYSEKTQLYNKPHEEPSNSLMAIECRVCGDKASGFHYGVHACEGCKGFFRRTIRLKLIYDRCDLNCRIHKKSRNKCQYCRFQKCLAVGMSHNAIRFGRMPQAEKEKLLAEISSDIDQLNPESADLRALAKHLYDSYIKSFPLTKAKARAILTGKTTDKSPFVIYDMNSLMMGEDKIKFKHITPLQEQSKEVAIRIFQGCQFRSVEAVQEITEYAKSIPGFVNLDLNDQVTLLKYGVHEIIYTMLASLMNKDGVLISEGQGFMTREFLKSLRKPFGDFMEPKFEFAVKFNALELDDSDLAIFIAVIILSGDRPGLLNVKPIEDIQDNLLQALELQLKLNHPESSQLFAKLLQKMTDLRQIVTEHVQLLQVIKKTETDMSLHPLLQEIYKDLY
Briefly: Ligand of PPARγ. It is filed as binding.

Series [1] deals with 5 weeks old Zucker (fa/fa) rats. Briefly: Intravenous glucose tolerance test (IVGTT) (Example 15). It is filed as in vivo, rat. On the procedure:
Male Zucker (fa/fa) rats (5 weeks old) were anaesthetised after a 5-hours fast, by intraperitoneal injection of sodium pentobarbital (50 mg/kg). The rats were injected with glucose (0.55 g/kg) in the saphenous vein and blood samples were collected from the tail vein in heparinized tubes at time 0, 5, 10, 15, 20 and 30 minutes after the glucose load. Samples were kept on ice, centrifuged and plasma was stored at −20° C. until analysis.

A further series concerns old obese Zucker rats. Nature of the series: Plasma free fatty acids, ketone bodies and liver HMG-CoA synthase in old obese Zucker rats (Table 7). Conditions: 21 week-old male obese Zucker (fa/fa) rats, standard diet with 0.15% TTA for 15 days, means ± SD. Type of series: in vivo, rat. On the procedure:
Glucose (GLU, Boehringer Mannheim, Germany), free fatty acids (NEFA, C ACS-ACOD kit; Wako Chemicals, Dalton, USA) and b-hydroxybutyrate (310-A kit; Sigma Diagnostics Inc., St. Louis, USA) concentrations were measured using enzymatic methods. Insulin concentrations were determined with radioimmunoassay by (CIS bio International, Gif sur Yvette, France) using rat insulin as standard in the Zucker rats. In the Wistar Charles River rats, plasma glucose concentrations were measured with the aid of Beckman Glucose Analyzer (Fullerton, Calif., USA). Plasma insulin levels were measured using a RIA kit from Linco Research Inc. (St. Charles, Mo., USA). Phospholipids were measured by the enzymatic method of bioMérieux, Marcy-l {grave over ( )}Etoile, France, Triacylglycerol by the Technicon Method no. SA4-0324L90, USA and Cholesterol by the Technicon Method no. SA4-0305L90, USA.
Freshly isolated livers from individual old Zucker rats, were homogenised in ice-cold sucrose buffer (0.25 M sucrose, 10 mM HEPES (pH 7.4) and 2 mM EDTA). Post-nuclear and mitochondrial fractions were prepared using preparative differential centrifugation according to DeDuve et al. (De Duve, C., et al., Biochem. J., 60, 604-617 1955.) Modifications, purity and yield were as described earlier (Garras, A., et al., Biochim. Biophys. Acta, 1255, 154-160 1995.). Acid soluble products were measured in post-nuclear and mitochondrial enriched fractions, using [1-^14C]-palmitoyl-CoA and [1-^14C]-palmitoyl-L-carnitine (Radiochemical Centre, Amersham, England) as substrates as described earlier (Willumsen, N., et al., J. Lipid Res., 34, 13-22 1993. Carnitine palmitoyltransferase-I and -II activities were measured in the post-nuclear and mitochondrial fractions essentially as described by Bremer (Bremer, J., Biochim. Biophys. Acta, 665, 628-631 1981.) and 3-hydroxy-3-methylglutharyl-CoA synthase was measured according to Clinkenbeard et al. (Clinkenbeard, K. D., et al., J. Biol. Chem, 250, 3108-3116 1975.) in the mitochondrial fractions.
Data are means±SD of six animals in both the control- and the experimental group. Free fatty acids (FFA) and ketone bodies ([…]) were measured in plasma and 3-hydroxy-3-methylglutaryl (HMG) -CoA synthase activities were measured in mitochondrial fractions prepared from the liver from 21 week-old male obese Zucker (fa/fa) rats given either a standard diet (control) or a standard diet enriched with 0.15% TTA for 15 days.

Series [2] deals with mouse lymphoma cells, L5178Y. Nature of the series: Mutagenicity test in mouse lymphoma cells L5178Y. Conditions: 2.5-50 mg/ml. It is filed as cell-based.
Text: as §1

Take Tetradecylthioacetic acid [TTA]: the “Induction of mutations in strains of Escherichia coli” value with Escherichia coli is reported as “did not induce mutations”. The “Ligand of PPARγ” value on PPARγ is on record as “less potent ligand”. For the same substance, the IVGTT glucose curves entry in series [1] (TTA treated vs control (FIG. 7B)) was “normal and comparable”. Also, the “Plasma insulin response to glucose (IVGTT)” value in series [1] (glucose 0.55 g/kg i.v. (FIG. 7A)) was “significantly lower”. In addition, in the series with old obese Zucker rats (liver mitochondrial fractions), the “HMG-CoA synthase activity (nmol/min/mg protein)” value turned out to be 27 ± 6 nmol/min/mg protein. Besides, in the series with old obese Zucker rats (plasma), the “4-OH butyrate” value was 3.44 ± 1.37 mmol/L, the “FFA (mEq/L)” value was determined as 0.53 ± 0.21 mEq/L and the FFA/ketone ratio is 0.17 ± 0.09. In addition, the “Mutagenicity in mouse lymphoma cells L5178Y” value in series [2] is reported as “not mutagenic”.

Values taken from US6365628B1 (Thia Medica AS, priority 1998, dated 2002).
